Data from patent US8748343B2, “Herbicide/safener combintions” (Bayer Cropscience AG, priority 1998, dated 2014).

Assays:
maize = assay: Field trial, phytotoxicity to maize (post-emergence)
Protocol: (§1) The field experiments were carried out in plots of 8 to 10 m^2, and each experiment was carried out in 2 to 4 replications. After the crop plants had been sown, the test preparations were applied pre-emergence, or in the 2-6-leaf stage, using plot sprayers. The spray volume was 100-300 l water/ha; it was applied by means of flat-jet nozzles at a pressure of 2-3 bar. Evaluation was done by visual scoring. The effects on the crop plants or on the broad-leaved weeds/grass weeds were estimated in comparison with untreated control plots using a percentage scale (0-100%). After application, the plants were scored 3-4 times at intervals of approx. 14, 28, 42 days after application. The results represent averages over 2-4 replications. […] Anti-weed action should show efficacies of ≧60%. From sowing until the experiments were concluded, they were exposed to the natural weather conditions (precipitation, temperature, atmospheric humidity, insolation), as they are characteristic for the experimental sites.

Abutilon theophrastis = assay: Field trial, action on grass weeds/broad-leaved weeds (post-emergence); type: in vivo; conditions: 100 g a.i./ha
Protocol: as §1

Panicum minor = assay: as above; type: in vivo; conditions: 100 g a.i./ha
Protocol: as §1

Setaria faberi = assay: as above; type: in vivo; conditions: 100 g a.i./ha
Protocol: as §1

SMILES | Phytotoxicity to maize [%] 14 dat (maize; maize, in vivo, 14 days) [%] | Phytotoxicity to maize [%] 42 dat (maize; maize, in vivo, 42 days) [%] | Phytotoxicity to maize [%] 14 dat (maize; field trial, 4-leaf stage (Table 11), 120 g a.i./ha, 14 days after treatment) [%] | Phytotoxicity to maize [%] 42 dat (maize; field trial, 4-leaf stage (Table 11), 120 g a.i./ha, 42 days after treatment) [%] | Phytotoxicity to maize [%] 14 dat (maize; field trial, 4-leaf stage, post-emergence, 100 g a.i./ha, 14 days after treatment) [%] | Phytotoxicity to maize [%] 31 dat (maize; field trial, 4-leaf stage, post-emergence, 100 g a.i./ha, 31 days after treatment) [%] | Phytotoxicity to maize [%] 14 dat (maize; field trial, mixture with sulfonylureas, post-emergence (Table 13), 120 g a.i./ha, 14 days after treatment) [%] | Phytotoxicity to maize [%] 42 dat (maize; field trial, mixture with sulfonylureas, post-emergence (Table 13), 120 g a.i./ha, 42 days after treatment) [%] | Phytotoxicity [%] Maize (maize; field trial, post-emergence (Table 12), 100 g a.i./ha) [%] | Phytotoxicity [%] Abutilon theophrastis (Abutilon theophrastis) [%] | Phytotoxicity [%] Panicum minor (Panicum minor) [%] | Phytotoxicity [%] Setaria faberi (Setaria faberi) [%]
COc1cc(OC)nc(NC(=O)NS(=O)(=O)c2cc(NC=O)ccc2C(=O)N(C)C)n1 [Herbicide 2, N,N-Dimethyl-2-[3-(4,6-dimethoxypyrimidin-2-yl)ureido-sulfonyl]-4-formylaminobenzamide] | 13 | 7 |  |  |  |  |  |  |  |  |  | 
CCOC(=O)C1=NOC(c2ccccc2)(c2ccccc2)C1 [Safener II-9, Ethyl 5,5-diphenyl-2-isoxazoline-3-carboxylate] |  |  | 0 | 0 | 0 | 0 | 0 | 0 | 0 | 0 | 0 | 0
